Series [1] has as its system C. neoformans. Description: In vitro susceptibility testing (MIC / IC80). In kind it is cell-based, Cryptococcus neoformans. Particulars: for IC80: Cryptococcus neoformans, Tables 1-3; for MIC: Example 2 table. The protocol:
Minimal inhibitory concentration (MIC) was determined following the methods of the Clinical Laboratory Standards Institutes (CLSI) with modifications. MIC studies used either RPMI or YNB medium (pH 7.0, 0.2% glucose) buffered with HEPES. […] The compound was serially diluted from 32 to 0.03 μg/ml or 19 to 0.02 μg/ml respectively in a 96 well plate with the respective medium. The yeast inoculum was prepared as described in the CLSI protocol M27-A3 guidelines. Plates were incubated at 37° C. and in the presence of 5% CO2 for 24-96 hours. Against all fungal isolates used in the initial susceptibility screen, the MICs were determined as the lowest concentration of the drug that inhibited 50% of growth compared to the control. MIC80 and MIC100, whose drug concentrations inhibited 80% and 100% growth compared to the control respectively, were also determined. For antibacterial activity, E. coli DH5a and P. aeruginosa PA14 were grown overnight in Luria Bertani (LB) broth at 30° C. The cells were washed with PBS and counted. Then, 300 μL from 2×10^8 cells/mL was spreaded onto LB agar plate using a hockey stick glass spreader. The plate was dried, and wells were punched out using a cut tip. Fifty microliters of different drug concentration was added to the well. The plate was then incubated at 30° C. for 24 hours.

Series [2] concerns C. neoformans. Briefly: In vitro killing assay (killing curve, Kapp, 48H killing). The following applies: for Kill characteristics: FIG. 1A / FIG. 1B; for Kapp*: Kapp = K0 − Ki (C − Ci), killing curve versus MIC. The class given is cell-based, Cryptococcus neoformans. The procedure: From an overnight culture, C. neoformans cells were washed in PBS, resuspended in YNB buffered with HEPES at pH 7.4. Cells were counted and 2×10^4 cells were incubated with either 1, 2 or 4 μg/ml of compound in a final volume of 10 ml. Tubes were then incubated at 37° C. in the presence of 5% CO2 on a rotary shaker at 200 rpm. At the illustrated time points, aliquots were taken and diluted and 100 μL was plated onto yeast peptone dextrose (YPD) plates. YPD plates were incubated in a 30° C. incubator and, after 72 hours, colony forming units (CFU) were counted and recorded.

Series [3] relates to A549. Briefly: A549 toxicity. The class given is cell-based.
Series [4] deals with HepG2. Description: HepG2 toxicity. In kind it is cell-based. The following applies: Tables 1-3.
Series [5] deals with C. neoformans. Description: In vitro susceptibility (MIC80) assay. The class given is cell-based. Particulars: Cryptococcus neoformans; lowest concentration that inhibited 80% of growth; YNB pH 7.0, HEPES, 37° C., 5% CO2. The protocol:
MICs was determined following the methods of the Clinical and Laboratory Standards Institutes (CLSI) with modifications. Yeast Nitrogen Base (YNB) medium (pH 7.0, 0.2% glucose) buffered with HEPES was used for MIC studies. […] The compound was serially diluted from 16 to 0.03 μg/ml, in a 96-well plate. The inoculum was prepared as described in the CLSI protocol M27A3 guidelines. The plates were incubated at 37° C. with 5% CO2 for 24 to 72 h and the optical density was measure at 450 nm. The MICs was determined as the lowest concentration of the compound that inhibited 80% of growth compared to the control.

The test system of series [6] is C. neoformans cells. Briefly: In vitro killing activity (K100) assay. The class given is cell-based, Cryptococcus neoformans. The following applies: Cryptococcus neoformans; minimum concentration that kills 100% of C. neoformans cells in 48 h. The procedure: C. neoformans cells from a culture grown overnight were washed in PBS and resuspended in YNB buffered with HEPES at pH 7.4. The cells were counted, and 2×10^4 cells were incubated with different concentration of compounds in a final volume of 10 ml with a final concentration of 0.5% DMSO. The tubes were then incubated at 37° C. with 5% CO2 on a rotary shaker at 200 rpm. Aliquots were taken at time points and diluted, and […] were plated onto Yeast Extract-Peptone-Dextrose (YPD) plates. YPD plates were incubated in a 30° C. incubator and after 48 h, the numbers of CFU were counted and recorded.

Series [7] concerns C. neoformans. Description: In vivo efficacy evaluation (survival study) in an animal model. Also noted: species or system CBA/J mice. Particulars: 20 mg/kg/day orally (gavage); mice infected intranasally with 5×10^5 C. neoformans cells. The procedure: For survival study, 4-week old CBA/J (Envigo) male mice were used. They were divided as ten mice for each treatment or control group. Mice were infected intranasally with 20 μl of a suspension containing 5×10^5 C. neoformans cells and subsequently treated orally with 20 mg/kg/day of compound A15 and fluconazole as drug control in a final volume of 100 μl of PEG30% in a saline buffer. The untreated control group mice received 100 μl of PEG30% in a saline buffer. Gavage was used as route of administration. At the end of the experiment, 80% of the mice treated with compound A15 survived whereas, only 30% of the mice treated with fluconazole survived. Mice were fed ad libitum and monitored every day for discomfort and meningitis signs. Mice showing weight loss, lethargy, tremor or inability to reach food or water were sacrificed and survival was counted until that day (see FIG. 2).

Values after ≈ are worked out from the molar mass of the structure shown.

As to `O=C(N/N=C/c1ccc(Br)cc1O)c1ccc(Br)cc1`, it took 0.06 µg/mL (≈ 0.151 µM) to reach the 80% level in series [1] (IC80). In addition, the “Killing assay 48H (μg/mL)” value in series [2] was “Fungistatic”. Also, the A549 in series [3] (Tables 1-3) stood at 16 µg/mL. The molecule also returned a HepG2 in series [4] of 32 µg/mL.
In series [1], `O=C(N/N=C/c1ccc(Br)cc1O)c1cc(Br)ccc1Br` yielded an IC80 of 0.12 µg/mL (≈ 0.252 µM). This molecule registered an A549 in series [3] (Tables 1-3) of 32 µg/mL. Further, the HepG2 in series [4] came to 16 µg/mL.
`Cc1ccccc1C(=O)N/N=C/c1cc(Br)ccc1O` [Compound 1] came in with an MIC in series [1] of 1 µg/mL (≈ 3 µM). Also, in series [2], the Kill characteristics entry is “killed C. neoformans in a concentration dependent manner” and the “Kapp*” value amounted to 0.024. In series [3] (Example 2 table), this molecule came in with an A549 of 32.
On the same counts, the results for `O=C(N/N=C/c1cc(Br)ccc1O)c1cccc(Br)c1` [Compound 2] are 0.25 µg/mL (≈ 0.628 µM), “killed C. neoformans in a time dependent manner”, −0.142 and 64.
In the case of `O=C(N/N=C/c1cc(Br)cc(Br)c1O)c1ccc(Br)cc1` [Compound 13], inhibition of growth in series [1] (MIC) required 0.06 µg/mL (≈ 0.126 µM). Further, in series [2], the “Kapp*” value is on record as −0.428. The A549 in series [3] (Example 2 table) is more than 128.
On the same counts, the results for `O=C(N/N=C/c1cc(Br)ccc1O)c1cc(Br)cc(Br)c1O` [Compound 17] are 0.5 µg/mL (≈ 1.01 µM), 0.077 and 16.
Take `COCc1ccc(C(=O)N/N=C/c2cc(Br)cc(Br)c2O)cc1` [Compound A15, 4-Methoxymethyl-N′-(3,5-dibromo-2-hydroxybenzylidene)benzohydrazide]: the MIC80 in series [5] amounted to 0.007 µg/mL (≈ 0.0158 µM). This molecule returned an MFC in series [6] of 0.03 µg/mL (≈ 0.0679 µM). The “mice survived at the end of the experiment” value in series [7] stood at 80%.
In turn, `[N-]=[N+]=Nc1ccc(C(=O)N/N=C/c2cc(Br)cc(Br)c2O)cc1` [Compound A45, 4-Azido-N′-(3,5-dibromo-2-hydroxybenzylidene)benzohydrazide] yielded a melting point of 193 to 197 °C. The molecule also came in with an MIC80 in series [5] of 0.06 µg/mL (≈ 0.137 µM).
For the molecule `O=C(N/N=C/c1cc(Br)cc(Br)c1O)c1cnc2ccccc2c1` [drawing 62], in series [1], the 80% effect level (IC80) was put at 0.25 µg/mL (≈ 0.557 µM). In addition, in series [2], the “Killing assay 48H (μg/mL)” value is reported as “Fungistatic”. In series [3] (Tables 1-3), this molecule showed an A549 of 32 µg/mL. In addition, the HepG2 in series [4] came out at 32 µg/mL.
Regarding `Cc1ccc(O)c(/C=N/NC(=O)c2cc(Br)cc(Br)c2O)c1` [drawing 66], the IC80 in series [1] worked out at 0.25 µg/mL (≈ 0.584 µM). Besides, the A549 in series [3] (Tables 1-3) was determined as 4 µg/mL. This molecule also registered a HepG2 in series [4] of 8 µg/mL.
In turn, `O=C(N/N=C/c1ccc(Br)cc1O)c1cc(Br)cc(Br)c1O` [drawing 79] showed an IC80 in series [1] of 0.06 µg/mL (≈ 0.122 µM). Moreover, the “Killing assay 48H (μg/mL)” value in series [2] is “Fungistatic”. Moreover, in series [3] (Tables 1-3), the A549 worked out at 32 µg/mL. Moreover, the HepG2 in series [4] was found to be 32 µg/mL.
As for `OC(Cn1cncn1)(Cn1cncn1)c1ccc(F)cc1F` [fluconazole, reference compound], the “mice survived at the end of the experiment” value in series [7] is given as 30%.

A word on the IC80: it is the point of the concentration-response curve where the effect stands at 80%. As a reminder, the MIC is the lowest concentration found to suppress growth. Lower therefore signals a more susceptible organism. The MIC80 is the lowest concentration that inhibits either 80% of growth or 80% of the strains tested, depending on the study. Read a high MIC80 as weaker potency. The melting point is the temperature of the solid-liquid transition.

These data come from US11414378B2, “Anti-fungals compounds targeting the synthesis of fungal sphingolipids” (THE RESEARCH FOUNDATION FOR THE STATE UNIVERSITY OF NEW YORK, priority 2017, dated 2022).
